Laboratory results: patent publication US20240109917A1 (ACTELION PHARMACEUTICALS LTD, priority 2020, published 2024)
Like-named read-outs stand apart in the source and are kept apart here.

What was measured:
[1] = biological target: Tb-labeled inactive PDGFRβ (Homo sapiens (Human), UniProt P09619); test: PDGFRβ LanthaScreen Assay; type: binding; conditions: read-out: PDGFR Lantha IC50
PDGFRβ = PDGFRβ (Rattus norvegicus (Rat), UniProt Q05030); test: PDGFRβ Cellular Assay (PDGFRb P-Y751 HTRF in A10 cells stimulated with PDGF-BB); type: cell-based
Chain of PDGFRβ (Q05030 32-1097): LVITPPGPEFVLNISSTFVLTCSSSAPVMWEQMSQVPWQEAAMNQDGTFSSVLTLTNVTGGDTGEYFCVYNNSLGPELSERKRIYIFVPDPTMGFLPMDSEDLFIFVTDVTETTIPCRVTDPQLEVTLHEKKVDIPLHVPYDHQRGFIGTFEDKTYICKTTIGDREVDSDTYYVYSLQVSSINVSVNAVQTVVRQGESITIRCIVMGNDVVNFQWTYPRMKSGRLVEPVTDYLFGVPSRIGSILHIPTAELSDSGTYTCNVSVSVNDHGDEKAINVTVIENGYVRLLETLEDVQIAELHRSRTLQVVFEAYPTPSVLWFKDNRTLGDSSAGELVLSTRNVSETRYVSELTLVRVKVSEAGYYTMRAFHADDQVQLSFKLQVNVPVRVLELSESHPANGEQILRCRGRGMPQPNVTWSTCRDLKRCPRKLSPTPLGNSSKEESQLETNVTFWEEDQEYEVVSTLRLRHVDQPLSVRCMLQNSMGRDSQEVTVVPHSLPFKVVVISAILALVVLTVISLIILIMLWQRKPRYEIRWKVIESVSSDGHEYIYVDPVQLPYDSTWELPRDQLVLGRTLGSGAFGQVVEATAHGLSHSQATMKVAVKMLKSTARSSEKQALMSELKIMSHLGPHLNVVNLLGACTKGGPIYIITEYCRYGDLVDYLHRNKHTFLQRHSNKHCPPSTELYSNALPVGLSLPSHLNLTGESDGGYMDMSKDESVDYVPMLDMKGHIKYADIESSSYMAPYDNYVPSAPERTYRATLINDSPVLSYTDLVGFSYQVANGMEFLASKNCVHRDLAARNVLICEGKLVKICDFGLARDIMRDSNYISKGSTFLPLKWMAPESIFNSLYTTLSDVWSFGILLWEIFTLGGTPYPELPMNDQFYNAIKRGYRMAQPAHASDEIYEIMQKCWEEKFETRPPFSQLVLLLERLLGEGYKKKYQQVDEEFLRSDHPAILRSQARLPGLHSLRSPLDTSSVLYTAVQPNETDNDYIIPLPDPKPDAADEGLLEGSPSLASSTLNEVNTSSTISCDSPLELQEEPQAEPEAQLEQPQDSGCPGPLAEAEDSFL
How it was run: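 Phospho-Y751 PDGFRβ was measured by HTRF in lysates of A10 rat cells. Cells received compound for 3 hours before PDGF-BB stimulation (100 ng/mL working stock).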

Chain of Tb-labeled inactive PDGFRβ (P09619 33-1106): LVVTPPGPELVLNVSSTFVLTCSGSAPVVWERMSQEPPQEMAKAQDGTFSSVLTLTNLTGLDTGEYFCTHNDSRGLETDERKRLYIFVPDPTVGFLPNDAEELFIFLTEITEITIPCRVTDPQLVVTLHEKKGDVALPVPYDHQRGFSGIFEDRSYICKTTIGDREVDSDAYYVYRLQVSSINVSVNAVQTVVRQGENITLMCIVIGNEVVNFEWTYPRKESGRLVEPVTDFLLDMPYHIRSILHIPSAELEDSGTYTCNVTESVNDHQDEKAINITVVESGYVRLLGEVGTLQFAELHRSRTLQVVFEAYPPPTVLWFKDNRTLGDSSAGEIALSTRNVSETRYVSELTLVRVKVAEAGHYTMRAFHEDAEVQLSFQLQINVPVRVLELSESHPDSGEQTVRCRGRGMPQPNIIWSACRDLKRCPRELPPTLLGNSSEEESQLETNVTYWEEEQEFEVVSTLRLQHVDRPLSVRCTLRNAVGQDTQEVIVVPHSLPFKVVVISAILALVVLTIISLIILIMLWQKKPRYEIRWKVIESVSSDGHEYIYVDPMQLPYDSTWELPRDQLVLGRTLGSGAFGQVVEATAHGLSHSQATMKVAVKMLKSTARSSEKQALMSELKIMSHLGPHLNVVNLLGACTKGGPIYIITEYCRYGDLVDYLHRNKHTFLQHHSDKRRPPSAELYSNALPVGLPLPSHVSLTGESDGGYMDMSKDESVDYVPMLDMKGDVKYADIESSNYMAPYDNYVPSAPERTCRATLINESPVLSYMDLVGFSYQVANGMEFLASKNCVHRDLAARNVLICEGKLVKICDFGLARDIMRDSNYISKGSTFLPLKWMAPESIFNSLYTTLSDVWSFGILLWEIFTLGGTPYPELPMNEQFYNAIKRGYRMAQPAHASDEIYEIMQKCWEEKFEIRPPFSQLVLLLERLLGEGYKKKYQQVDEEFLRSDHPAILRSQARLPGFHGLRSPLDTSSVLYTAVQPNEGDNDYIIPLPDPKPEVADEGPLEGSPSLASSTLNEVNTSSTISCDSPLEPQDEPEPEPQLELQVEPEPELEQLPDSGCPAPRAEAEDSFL

SMILES | IC50 [1] [nM] | IC50 (PDGFRβ; read-out: PDGFR Cellular IC50) [nM] | IC50 (PDGFRβ; PDGFR Cellular IC50) [nM]
Cc1ncc(NC(=O)C2CCN(C(C)C)C2)cc1NC(=O)c1cnn2cc(-c3cnn4c3OCCC4)sc12 (centres unmarked) [Example 350, 2-(6,7-dihydro-5H-pyrazolo[5,1-b][1,3]oxazin-3-yl)-N-(5-(1-isopropylpyrrolidine-3-carboxamido)-2-methylpyridin-3-yl)pyrazolo[5,1-b]thiazole-7-carboxamide] | 4.1 | 73.3 | –
Cc1ncc(C(=O)NCCN2CCCC2(C)C)cc1NC(=O)c1cnn2cc(-c3cnn(Cc4cc(O)no4)c3)sc12 [Example 363, N-(5-((2-(2,2-dimethylpyrrolidin-1-yl)ethyl)carbamoyl)-2-methylpyridin-3-yl)-2-(1-((3-hydroxyisoxazol-5-yl)methyl)-1H-pyrazol-4-yl)pyrazolo[5,1-b]thiazole-7-carboxamide] | 14.1 | > 2000 | –
COc1ncccc1-c1cn2ncc(C(=O)Nc3cc(NC(=O)CN4CC(F)C4)cnc3C)c2s1 [Example 402, N-(5-(2-(3-fluoroazetidin-1-yl)acetamido)-2-methylpyridin-3-yl)-2-(2-methoxypyridin-3-yl)pyrazolo[5,1-b]thiazole-7-carboxamide] | 2.7 | 5.4 | –
COC/C=C/c1cn2ncc(C(=O)Nc3cc(NC(=O)CN4C[C@H](C)O[C@@H](C)C4)cnc3C)c2s1 (relative stereo) [Example 367, N-(5-(2-(trans-2,6-dimethylmorpholino)acetamido)-2-methylpyridin-3-yl)-2-((E)-3-methoxyprop-1-en-1-yl)pyrazolo[5,1-b]thiazole-7-carboxamide] | 17.3 | – | 18.6
Cc1ncc(NS(=O)(=O)CCN2CC3CCC2CC3)cc1NC(=O)c1cnn2cc(-c3cnn(C)c3)sc12 [Example 358, N-(5-((2-(2-azabicyclo[2.2.2]octan-2-yl)ethyl)sulfonamido)-2-methylpyridin-3-yl)-2-(1-methyl-1H-pyrazol-4-yl)pyrazolo[5,1-b]thiazole-7-carboxamide] | 1840 | 941 | –
Cc1ncc(NC(=O)CN2CC3CCC(C2)O3)cc1NC(=O)c1cnn2cc(-c3cc[nH]c3)sc12 [Example 366, N-(5-(2-(8-oxa-3-azabicyclo[3.2.1]octan-3-yl)acetamido)-2-methylpyridin-3-yl)-2-(1H-pyrrol-3-yl)pyrazolo[5,1-b]thiazole-7-carboxamide] | 2.5 | 7.7 | –
Cc1ncc(NC(=O)CN2C[C@@H](CO)O[C@@H](C)C2)cc1NC(=O)c1cnn2cc(-c3cnn(C)c3)sc12 (relative stereo) [Example 378, N-(5-(2-(cis-2-(hydroxymethyl)-6-methylmorpholino)acetamido)-2-methylpyridin-3-yl)-2-(1-methyl-1H-pyrazol-4-yl)pyrazolo[5,1-b]thiazole-7-carboxamide] | 10.2 | 304 | –
Cc1ncc(NC(=O)CN2CCC3(CC3)C2)cc1NC(=O)c1cnn2cc(-c3cnn(CCO)c3)sc12 [Example 32, N-(5-(2-(5-azaspiro[2.4]heptan-5-yl)acetamido)-2-methylpyridin-3-yl)-2-(1-(2-hydroxyethyl)-1H-pyrazol-4-yl)pyrazolo[5,1-b]thiazole-7-carboxamide] | 5.5 | 20.5 | –
COc1cccc(-c2cn3ncc(C(=O)Nc4cc(NC(=O)CN5C[C@H](C)O[C@@H](C)C5)cnc4C)c3s2)n1 (relative stereo) [Example 386, N-(5-(2-(trans-2,6-dimethylmorpholino)acetamido)-2-methylpyridin-3-yl)-2-(6-methoxypyridin-2-yl)pyrazolo[5,1-b]thiazole-7-carboxamide] | 2.5 | 3.8 | –
COc1ncccc1-c1cn2ncc(C(=O)Nc3cc(NC(=O)CN4C[C@H](C)O[C@@H](C)C4)cnc3C)c2s1 (relative stereo) [Example 368, N-(5-(2-(trans-2,6-dimethylmorpholino)acetamido)-2-methylpyridin-3-yl)-2-(2-methoxypyridin-3-yl)pyrazolo[5,1-b]thiazole-7-carboxamide] | 2.4 | 3.7 | –
Cc1ncc(NC(=O)CN2CCCC[C@H]2C)cc1NC(=O)c1cnn2cc(-c3cnn(CCO)c3)sc12 [Example 33, (R)-2-(1-(2-hydroxyethyl)-1H-pyrazol-4-yl)-N-(2-methyl-5-(2-(2-methyl-piperidin-1-yl)acetamido)pyridin-3-yl)pyrazolo[5,1-b]thiazole-7-carboxamide] | 9.3 | – | 10.1
Cc1ncc(NC(=O)C2CN(C(C)C)C2)cc1NC(=O)c1cnn2cc(-c3cnn4c3OCCC4)sc12 [Example 348, 2-(6,7-dihydro-5H-pyrazolo[5,1-b][1,3]oxazin-3-yl)-N-(5-(1-isopropylazetidine-3-carboxamido)-2-methylpyridin-3-yl)pyrazolo[5,1-b]thiazole-7-carboxamide] | 4 | 195 | –
Cc1cnn(C)c1-c1cn2ncc(C(=O)Nc3cc(NC(=O)CN4CC(C)(C)C4)cnc3C)c2s1 [Example 389, 2-(1,4-dimethyl-1H-pyrazol-5-yl)-N-(5-(2-(3,3-dimethylazetidin-1-yl)acetamido)-2-methylpyridin-3-yl)pyrazolo[5,1-b]thiazole-7-carboxamide] | 7.5 | 3.1 | –
COc1ncccc1-c1cn2ncc(C(=O)Nc3cc(NC(=O)CN4CC5(COC5)C4)cnc3C)c2s1 [Example 404, N-(5-(2-(2-oxa-6-azaspiro[3.3]heptan-6-yl)acetamido)-2-methylpyridin-3-yl)-2-(2-methoxypyridin-3-yl)pyrazolo[5,1-b]thiazole-7-carboxamide] | 4.9 | 7.2 | –
Cc1ncc(NC(=O)C2CCN(C(C)C)C2)cc1NC(=O)c1cnn2cc(-c3cn(C)nc3C)sc12 (centres unmarked) [Example 355, 2-(1,3-dimethyl-1H-pyrazol-4-yl)-N-(5-(1-isopropylpyrrolidine-3-carboxamido)-2-methylpyridin-3-yl)pyrazolo[5,1-b]thiazole-7-carboxamide] | 11.3 | 50.3 | –
Cc1ncc(NC(=O)CN2C[C@H](C)O[C@@H](C)C2)cc1NC(=O)c1cnn2cc(-c3cc[nH]c3)sc12 [Example 365, N-(5-(2-(2,6-trans-dimethylmorpholino)acetamido)-2-methylpyridin-3-yl)-2-(1H-pyrrol-3-yl)pyrazolo[5,1-b]thiazole-7-carboxamide] | 2.4 | 4.8 | –
COCCn1cc(-c2cn3ncc(C(=O)Nc4cc(NC(=O)C5CN(C(C)C)C5)cnc4C)c3s2)cn1 [Example 342, N-(5-(1-isopropylazetidine-3-carboxamido)-2-methylpyridin-3-yl)-2-(1-(2-methoxyethyl)-1H-pyrazol-4-yl)pyrazolo[5,1-b]thiazole-7-carboxamide] | 15.9 | 339 | –
COCCn1cc(-c2cn3ncc(C(=O)Nc4cc(NC(=O)CN5CCC(C6CC6)C5)cnc4C)c3s2)cn1 (centres unmarked) [Example 341, N-(5-(2-(3-cyclopropylpyrrolidin-1-yl)acetamido)-2-methylpyridin-3-yl)-2-(1-(2-methoxyethyl)-1H-pyrazol-4-yl)pyrazolo[5,1-b]thiazole-7-carboxamide] | 4.6 | 5.1 | –
Cc1ncc(NC(=O)CN2CCC[C@H]2C)cc1NC(=O)c1cnn2cc(-c3cnn(C)c3)sc12 [Example 26, (R)-2-(1-methyl-1H-pyrazol-4-yl)-N-(2-methyl-5-(2-(2-methyl-pyrrolidin-1-yl)acetamido)pyridin-3-yl)pyrazolo[5,1-b]thiazole-7-carboxamide] | 11.7 | 5.9 | –
Cc1ncc(NC(=O)CN2CCC23CCC3)cc1NC(=O)c1cnn2cc(-c3ccnc(N4CCOCC4)c3)sc12 [Example 353, N-(5-(2-(1-azaspiro[3.3]heptan-1-yl)acetamido)-2-methylpyridin-3-yl)-2-(2-morpholinopyridin-4-yl)pyrazolo[5,1-b]thiazole-7-carboxamide] | 1.4 | 1.6 | –
COc1ncccc1-c1cn2ncc(C(=O)Nc3cc(NC(=O)CN4CC(C)(OC)C4)cnc3C)c2s1 [Example 396, N-(5-(2-(3-methoxy-3-methylazetidin-1-yl)acetamido)-2-methylpyridin-3-yl)-2-(2-methoxypyridin-3-yl)pyrazolo[5,1-b]thiazole-7-carboxamide] | 1.8 | 4.3 | –
Cc1ncc(NC(=O)CN2C[C@H](C)O[C@@H](C)C2)cc1NC(=O)c1cnn2cc(-c3c[nH]nc3C)sc12 (relative stereo) [Example 371, N-(5-(2-(trans-2,6-dimethylmorpholino)acetamido)-2-methylpyridin-3-yl)-2-(3-methyl-1H-pyrazol-4-yl)pyrazolo[5,1-b]thiazole-7-carboxamide] | 3 | 29.3 | –
Cc1ncc(NC(=O)CN2CCC3(CCC3)C2)cc1NC(=O)c1cnn2cc(-c3cnn(CCO)c3)sc12 [Example 30, N-(5-(2-(6-azaspiro[3.4]octan-6-yl)acetamido)-2-methylpyridin-3-yl)-2-(1-(2-hydroxyethyl)-1H-pyrazol-4-yl)pyrazolo[5,1-b]thiazole-7-carboxamide] | 3.3 | 16.5 | –
Cc1ncc(NC(=O)CN2C[C@H](C)O[C@@H](C)C2)cc1NC(=O)c1cnn2cc(-c3cc[nH]n3)sc12 (relative stereo) [Example 374, N-(5-(2-(trans-2,6-dimethylmorpholino)acetamido)-2-methylpyridin-3-yl)-2-(1H-pyrazol-3-yl)pyrazolo[5,1-b]thiazole-7-carboxamide] | 4 | 41.3 | –
COc1ncccc1-c1cn2ncc(C(=O)Nc3cc(NC(=O)CN4C[C@@H](CO)OC(C)(C)C4)cnc3C)c2s1 [Example 380, (S)—N-(5-(2-(6-(hydroxymethyl)-2,2-dimethylmorpholino)acetamido)-2-methylpyridin-3-yl)-2-(2-methoxypyridin-3-yl)pyrazolo[5,1-b]thiazole-7-carboxamide] | 3 | 9.8 | –
